# Test results: EPA's ToxRefDB 2
# Key:
# rat [1] = details: Subchronic oral toxicity in rodents, fischer, Feed, dose end: 13 week
# rat [2] = details: Combined chronic toxicity/carcinogenicity, fischer, Oral, Feed, dose end: 104 week
# mouse [3] = details: Subchronic oral toxicity in rodents, b6c3f1, Gavage/Intubation, dose end: 13 week
# mouse [4] = details: Combined chronic toxicity/carcinogenicity, b6c3f1, Oral, Feed, dose end: 105 week
# mouse [5] = details: Subchronic oral toxicity in rodents, b6c3f1, Feed, dose end: 13 week
# rat [6] = details: Subchronic oral toxicity in rodents, fischer, Gavage/Intubation, dose end: 13 week
# rat [7] = details: Prenatal developmental toxicity study, sprague dawley, Oral, Gavage/Intubation, dose end: 19 GD
# rat [8] = details: Peri- and post-natal toxicity study (Segment III), sprague dawley, Oral, Gavage/Intubation, dose end: 40 PND
# rat [9] = details: Prenatal developmental toxicity study, sprague dawley, Oral, Gavage/Intubation, dose end: 15 GD
# [10] = group: cholinesterase, cholinesterase / cholinesterase / cholinesterase / cholinesterase (che)
# [11] = group: systemic, systemic / in life observation / body weight / body weight + systemic / in life observation / body weight / body weight gain + systemic / in…
# [12] = group: systemic, systemic / pathology microscopic / adrenal gland / vacuolization cytoplasmic
# [13] = group: systemic, systemic / pathology microscopic / ovary / hyperplasia + systemic / in life observation / clinical signs / grip strength + systemic / organ …
# [14] = group: systemic, systemic / pathology microscopic / adrenal gland / vacuolization cytoplasmic + systemic / pathology microscopic / ovary / hypertrophy
# [15] = group: systemic, systemic / pathology microscopic / adrenal gland / pigmentation
# [16] = group: systemic, systemic / hematology / hemoglobin (hgb) / hemoglobin (hgb) + systemic / hematology / mean corpuscular hemoglobin concentration (mchc) / …
# [17] = group: systemic, systemic / hematology / hemoglobin (hgb) / hemoglobin (hgb) + systemic / in life observation / clinical signs / grip strength + systemic / …
# [18] = group: developmental, developmental / developmental malformation / bone / fused cartilage + systemic / in life observation / body weight / fetal weight
# [19] = group: maternal, systemic / in life observation / body weight / body weight gain + systemic / in life observation / food consumption / food consumption
# [20] = group: maternal, systemic / in life observation / body weight / body weight gain + systemic / in life observation / food consumption / food consumption + …
# [21] = group: developmental, developmental / developmental landmark / vaginal opening / vaginal opening
# [22] = group: maternal, reproductive / reproductive performance / estrous cycle / abnormal + reproductive / reproductive performance / estrous cycle / corpora lutea
# [23] = group: parental, systemic / clinical chemistry / estradiol / estradiol + systemic / organ weight / kidney / absolute + systemic / organ weight / ovary / …
# [24] = group: developmental, developmental / developmental malformation / bone / absent + developmental / developmental malformation / bone / bipartite ossification + …
# [25] = group: maternal, systemic / pathology gross / liver / enlarged + systemic / in life observation / clinical signs / salivation
structure (smiles),measurement,setting,value
Cc1ccc(OP(=O)(Oc2ccc(C)cc2)Oc2ccc(C)cc2)cc1.Cc1cccc(OP(=O)(Oc2cccc(C)c2)Oc2cccc(C)c2)c1.Cc1ccccc1OP(=O)(Oc1ccccc1C)Oc1ccccc1C [Tricresyl phosphate],LEL,rat [1]; [10],55 mg/kg/day
same,LOAEL,rat [1]; [10],> 750 mg/kg/day
same,NEL,rat [1]; [10],< 55 mg/kg/day
same,NOAEL,rat [1]; [10],≥ 750 mg/kg/day
same,LOAEL,rat [1]; [11],> 750 mg/kg/day
same,NOAEL,rat [1]; [11],≥ 750 mg/kg/day
same,LEL,rat [1]; [12],55 mg/kg/day
same,NEL,rat [1]; [12],< 55 mg/kg/day
same,LEL,rat [2]; [10],4 mg/kg/day
same,LOAEL,rat [2]; [10],> 30 mg/kg/day
same,NEL,rat [2]; [10],< 4 mg/kg/day
same,NOAEL,rat [2]; [10],≥ 30 mg/kg/day
same,LEL,"rat [2]; group: systemic, systemic / pathology microscopic / ovary / hyperplasia",7 mg/kg/day
same,LOAEL,rat [2]; [13],> 30 mg/kg/day
same,NEL,rat [2]; [13],4 mg/kg/day
same,NOAEL,rat [2]; [13],≥ 30 mg/kg/day
same,LEL,mouse [3]; [10],50 mg/kg/day
same,LOAEL,mouse [3]; [10],> 800 mg/kg/day
same,NEL,mouse [3]; [10],< 50 mg/kg/day
same,NOAEL,mouse [3]; [10],≥ 800 mg/kg/day
same,LOAEL,mouse [3]; [11],> 800 mg/kg/day
same,NOAEL,mouse [3]; [11],≥ 800 mg/kg/day
same,LEL,mouse [3]; [14],50 mg/kg/day
same,NEL,mouse [3]; [14],< 50 mg/kg/day
same,LEL,mouse [4]; [10],7 mg/kg/day
same,LOAEL,mouse [4]; [10],7 mg/kg/day
same,NEL,mouse [4]; [10],< 7 mg/kg/day
same,NOAEL,mouse [4]; [10],< 7 mg/kg/day
same,LEL,mouse [4]; [15],8 mg/kg/day
same,LOAEL,mouse [4]; [15],8 mg/kg/day
same,NEL,mouse [4]; [15],< 8 mg/kg/day
same,NOAEL,mouse [4]; [15],< 8 mg/kg/day
same,LEL,mouse [5]; [10],45 mg/kg/day
same,LOAEL,mouse [5]; [10],> 900 mg/kg/day
same,NEL,mouse [5]; [10],< 45 mg/kg/day
same,NOAEL,mouse [5]; [10],≥ 900 mg/kg/day
same,LOAEL,mouse [5]; [16],> 900 mg/kg/day
same,NOAEL,mouse [5]; [16],≥ 900 mg/kg/day
same,LEL,mouse [5]; [12],65 mg/kg/day
same,NEL,mouse [5]; [12],< 65 mg/kg/day
same,LEL,rat [6]; [10],50 mg/kg/day
same,LOAEL,rat [6]; [10],> 800 mg/kg/day
same,NEL,rat [6]; [10],< 50 mg/kg/day
same,NOAEL,rat [6]; [10],≥ 800 mg/kg/day
same,LOAEL,rat [6]; [17],> 800 mg/kg/day
same,NOAEL,rat [6]; [17],≥ 800 mg/kg/day
same,LEL,rat [6]; [14],50 mg/kg/day
same,NEL,rat [6]; [14],< 50 mg/kg/day
"CC(C)c1ccc2cc(C(C)C)ccc2c1 [2,6-Diisopropylnaphthalene]",LEL,rat [7]; [18],500 mg/kg/day
same,LOAEL,rat [7]; [18],500 mg/kg/day
same,NEL,rat [7]; [18],150 mg/kg/day
same,NOAEL,rat [7]; [18],150 mg/kg/day
same,LEL,rat [7]; [19],150 mg/kg/day
same,LOAEL,rat [7]; [19],150 mg/kg/day
same,NEL,rat [7]; [20],50 mg/kg/day
same,NOAEL,rat [7]; [20],50 mg/kg/day
CC(C)OC(=O)c1ccc(O)cc1 [Isopropylparaben],LEL,rat [8]; [21],250 mg/kg/day
same,LOAEL,rat [8]; [21],> 1000 mg/kg/day
same,NEL,rat [8]; [21],62.5 mg/kg/day
same,NOAEL,rat [8]; [21],≥ 1000 mg/kg/day
same,LEL,rat [8]; [22],1000 mg/kg/day
same,LOAEL,rat [8]; [22],> 1000 mg/kg/day
same,NEL,rat [8]; [22],250 mg/kg/day
same,NOAEL,rat [8]; [22],≥ 1000 mg/kg/day
same,LEL,rat [8]; [23],1000 mg/kg/day
same,LOAEL,rat [8]; [23],> 1000 mg/kg/day
same,NEL,rat [8]; [23],250 mg/kg/day
same,NOAEL,rat [8]; [23],≥ 1000 mg/kg/day
C[N+]12CN3CN(CN(C3)C1)C2.[Cl-],LEL,rat [9]; [24],1500 mg/kg/day
same,LOAEL,rat [9]; [24],1500 mg/kg/day
same,NEL,rat [9]; [24],< 1500 mg/kg/day
same,NOAEL,rat [9]; [24],< 1500 mg/kg/day
same,LOAEL,"rat [9]; group: maternal, systemic / in life observation / body weight / body weight + systemic / pathology gross / liver / enlarged",3000 mg/kg/day
same,NOAEL,"rat [9]; group: maternal, systemic / in life observation / body weight / body weight + systemic / pathology gross / liver / enlarged + reproductive / reproductive …",1500 mg/kg/day
same,LEL,rat [9]; [25],1500 mg/kg/day
same,NEL,rat [9]; [25],< 1500 mg/kg/day
